The text below walks through data of publication PMC7614683, “A small molecule PI3Kα activator for cardioprotection and neuroregeneration” (Nature, 2023).

Where two headings read alike, the source gives them in different places.

Common to all, as to test: SelectScreen Z-LYTE kinase activity assay (SI Table 6)
Type in all cases: biochemical

Experiment [1] has as its target protein kinases of the Z-LYTE panel (Homo sapiens, UniProt P17948). An outline of the steps: (§1)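 A counterscreen of 133 protein and 7 lipid kinases was run with one compound concentration, 1 μM 1938, in SelectScreen Adapta, Lantha or Z-LYTE assays.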
Experiment [2] addresses protein kinases of the Z-LYTE panel (Homo sapiens, UniProt P49137). The method in brief: as §1
For experiment [3], the target named is protein kinases of the Z-LYTE panel (Homo sapiens, UniProt P80192). An outline of the steps: as §1
Experiment [4] has as its target T1, protein kinases of the Z-LYTE panel (Homo sapiens, UniProt Q13043).
T1 sequence (Q13043 1-487): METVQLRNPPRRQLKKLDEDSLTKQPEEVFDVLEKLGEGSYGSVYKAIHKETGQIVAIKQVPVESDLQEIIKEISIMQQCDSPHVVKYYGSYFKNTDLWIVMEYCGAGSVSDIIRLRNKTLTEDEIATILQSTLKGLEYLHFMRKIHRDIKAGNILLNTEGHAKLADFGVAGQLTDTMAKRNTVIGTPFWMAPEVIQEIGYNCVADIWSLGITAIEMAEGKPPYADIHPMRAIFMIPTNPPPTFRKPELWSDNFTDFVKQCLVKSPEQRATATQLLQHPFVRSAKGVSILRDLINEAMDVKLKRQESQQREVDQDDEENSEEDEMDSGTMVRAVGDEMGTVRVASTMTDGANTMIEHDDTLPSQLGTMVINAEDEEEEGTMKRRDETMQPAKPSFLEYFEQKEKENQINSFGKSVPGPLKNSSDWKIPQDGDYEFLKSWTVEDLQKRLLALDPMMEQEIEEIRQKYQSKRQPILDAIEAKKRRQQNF
The method in brief:
as §1

The target in experiment [5] is T2, protein kinases of the Z-LYTE panel (Homo sapiens, UniProt Q13976).
T2 sequence (Q13976 1-671): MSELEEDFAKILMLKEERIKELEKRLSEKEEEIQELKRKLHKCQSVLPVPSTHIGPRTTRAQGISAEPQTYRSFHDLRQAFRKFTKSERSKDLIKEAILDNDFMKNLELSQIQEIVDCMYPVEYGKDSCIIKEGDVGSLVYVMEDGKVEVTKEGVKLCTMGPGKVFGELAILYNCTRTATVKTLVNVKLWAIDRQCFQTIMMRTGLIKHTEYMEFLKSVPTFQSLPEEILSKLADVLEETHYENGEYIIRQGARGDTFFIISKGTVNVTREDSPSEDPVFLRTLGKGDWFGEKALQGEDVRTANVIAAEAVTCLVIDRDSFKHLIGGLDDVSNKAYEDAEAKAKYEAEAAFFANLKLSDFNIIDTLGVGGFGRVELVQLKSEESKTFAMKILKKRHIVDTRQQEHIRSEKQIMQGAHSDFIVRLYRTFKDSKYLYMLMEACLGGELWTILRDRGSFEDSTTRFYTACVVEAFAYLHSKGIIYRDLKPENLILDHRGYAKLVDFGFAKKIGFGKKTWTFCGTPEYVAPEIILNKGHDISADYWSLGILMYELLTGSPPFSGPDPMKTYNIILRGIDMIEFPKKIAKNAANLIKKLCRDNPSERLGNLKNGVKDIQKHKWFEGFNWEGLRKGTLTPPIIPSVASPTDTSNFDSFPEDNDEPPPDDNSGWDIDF
An outline of the steps:
as §1

Experiment [6] deals with protein kinases of the Z-LYTE panel (Homo sapiens, UniProt Q7KZI7). An outline of the steps:
as §1

In experiment [7] the target is protein kinases of the Z-LYTE panel (Homo sapiens, UniProt Q9P286). The method in brief:
as §1

Chain of protein kinases of the Z-LYTE panel (Homo sapiens, UniProt Q9P286) (Q9P286 whole entry): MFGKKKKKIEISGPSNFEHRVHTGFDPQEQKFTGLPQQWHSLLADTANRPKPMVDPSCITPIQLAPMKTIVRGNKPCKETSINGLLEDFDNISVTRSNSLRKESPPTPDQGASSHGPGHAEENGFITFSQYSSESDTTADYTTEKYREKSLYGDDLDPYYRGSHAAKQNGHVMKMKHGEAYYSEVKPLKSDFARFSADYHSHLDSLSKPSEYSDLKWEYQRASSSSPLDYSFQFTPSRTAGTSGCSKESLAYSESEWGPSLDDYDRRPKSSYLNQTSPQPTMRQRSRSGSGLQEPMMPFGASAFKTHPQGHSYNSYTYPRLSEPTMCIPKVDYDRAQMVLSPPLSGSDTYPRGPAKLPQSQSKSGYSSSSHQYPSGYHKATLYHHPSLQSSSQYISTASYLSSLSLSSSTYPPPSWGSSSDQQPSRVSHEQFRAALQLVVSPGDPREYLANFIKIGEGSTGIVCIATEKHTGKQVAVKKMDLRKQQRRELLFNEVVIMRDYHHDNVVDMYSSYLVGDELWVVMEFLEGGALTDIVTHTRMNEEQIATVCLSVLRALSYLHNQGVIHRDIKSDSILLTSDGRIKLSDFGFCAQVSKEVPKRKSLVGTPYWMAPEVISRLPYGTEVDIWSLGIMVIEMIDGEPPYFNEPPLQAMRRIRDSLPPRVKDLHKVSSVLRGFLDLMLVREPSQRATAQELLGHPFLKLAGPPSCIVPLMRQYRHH
Chain of protein kinases of the Z-LYTE panel (Homo sapiens, UniProt P17948) (P17948 27-1338): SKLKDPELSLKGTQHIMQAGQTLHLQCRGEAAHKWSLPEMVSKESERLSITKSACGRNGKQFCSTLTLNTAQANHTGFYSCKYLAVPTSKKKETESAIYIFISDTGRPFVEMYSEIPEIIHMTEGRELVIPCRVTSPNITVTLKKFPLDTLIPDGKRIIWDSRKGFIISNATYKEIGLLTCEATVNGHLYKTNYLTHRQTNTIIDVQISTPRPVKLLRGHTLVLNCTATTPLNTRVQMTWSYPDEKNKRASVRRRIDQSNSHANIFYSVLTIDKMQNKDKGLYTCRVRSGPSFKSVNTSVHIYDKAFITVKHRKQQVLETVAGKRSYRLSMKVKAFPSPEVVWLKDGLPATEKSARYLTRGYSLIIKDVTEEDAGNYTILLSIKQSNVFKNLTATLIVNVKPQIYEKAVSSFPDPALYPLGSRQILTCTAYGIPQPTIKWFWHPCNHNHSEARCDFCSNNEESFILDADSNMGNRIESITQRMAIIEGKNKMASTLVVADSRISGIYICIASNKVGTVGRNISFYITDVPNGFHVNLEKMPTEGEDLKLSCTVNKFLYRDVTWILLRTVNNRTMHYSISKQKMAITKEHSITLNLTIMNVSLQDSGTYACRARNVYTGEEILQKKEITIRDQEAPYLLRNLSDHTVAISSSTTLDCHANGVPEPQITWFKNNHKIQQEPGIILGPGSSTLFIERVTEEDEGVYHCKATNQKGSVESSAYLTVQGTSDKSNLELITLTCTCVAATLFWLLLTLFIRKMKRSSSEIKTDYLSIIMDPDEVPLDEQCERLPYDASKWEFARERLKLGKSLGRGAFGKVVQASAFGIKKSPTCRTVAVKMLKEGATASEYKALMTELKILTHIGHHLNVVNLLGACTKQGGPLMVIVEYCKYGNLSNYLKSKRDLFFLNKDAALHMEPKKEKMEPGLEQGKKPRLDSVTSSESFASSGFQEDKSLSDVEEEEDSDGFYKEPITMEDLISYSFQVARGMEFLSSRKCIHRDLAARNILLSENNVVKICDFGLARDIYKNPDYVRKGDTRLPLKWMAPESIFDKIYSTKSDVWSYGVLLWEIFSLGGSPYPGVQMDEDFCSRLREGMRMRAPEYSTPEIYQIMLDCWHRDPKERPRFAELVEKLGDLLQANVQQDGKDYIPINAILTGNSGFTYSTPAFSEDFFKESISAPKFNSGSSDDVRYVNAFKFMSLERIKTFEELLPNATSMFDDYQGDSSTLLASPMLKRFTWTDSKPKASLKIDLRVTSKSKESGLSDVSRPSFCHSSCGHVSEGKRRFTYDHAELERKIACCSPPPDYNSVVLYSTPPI
Chain of protein kinases of the Z-LYTE panel (Homo sapiens, UniProt P49137) (P49137 whole entry): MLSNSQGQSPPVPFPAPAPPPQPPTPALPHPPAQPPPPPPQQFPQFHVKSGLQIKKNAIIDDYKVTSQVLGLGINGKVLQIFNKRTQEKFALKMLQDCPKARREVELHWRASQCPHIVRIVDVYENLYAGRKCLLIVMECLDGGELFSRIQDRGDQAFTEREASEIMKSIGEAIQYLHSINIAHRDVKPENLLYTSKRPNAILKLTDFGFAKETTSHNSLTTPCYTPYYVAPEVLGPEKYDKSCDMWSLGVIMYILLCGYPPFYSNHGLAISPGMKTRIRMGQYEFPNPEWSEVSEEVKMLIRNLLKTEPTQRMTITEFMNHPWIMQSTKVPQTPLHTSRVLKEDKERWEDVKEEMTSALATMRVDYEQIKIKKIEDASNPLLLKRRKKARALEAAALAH
Chain of protein kinases of the Z-LYTE panel (Homo sapiens, UniProt P80192) (P80192 whole entry): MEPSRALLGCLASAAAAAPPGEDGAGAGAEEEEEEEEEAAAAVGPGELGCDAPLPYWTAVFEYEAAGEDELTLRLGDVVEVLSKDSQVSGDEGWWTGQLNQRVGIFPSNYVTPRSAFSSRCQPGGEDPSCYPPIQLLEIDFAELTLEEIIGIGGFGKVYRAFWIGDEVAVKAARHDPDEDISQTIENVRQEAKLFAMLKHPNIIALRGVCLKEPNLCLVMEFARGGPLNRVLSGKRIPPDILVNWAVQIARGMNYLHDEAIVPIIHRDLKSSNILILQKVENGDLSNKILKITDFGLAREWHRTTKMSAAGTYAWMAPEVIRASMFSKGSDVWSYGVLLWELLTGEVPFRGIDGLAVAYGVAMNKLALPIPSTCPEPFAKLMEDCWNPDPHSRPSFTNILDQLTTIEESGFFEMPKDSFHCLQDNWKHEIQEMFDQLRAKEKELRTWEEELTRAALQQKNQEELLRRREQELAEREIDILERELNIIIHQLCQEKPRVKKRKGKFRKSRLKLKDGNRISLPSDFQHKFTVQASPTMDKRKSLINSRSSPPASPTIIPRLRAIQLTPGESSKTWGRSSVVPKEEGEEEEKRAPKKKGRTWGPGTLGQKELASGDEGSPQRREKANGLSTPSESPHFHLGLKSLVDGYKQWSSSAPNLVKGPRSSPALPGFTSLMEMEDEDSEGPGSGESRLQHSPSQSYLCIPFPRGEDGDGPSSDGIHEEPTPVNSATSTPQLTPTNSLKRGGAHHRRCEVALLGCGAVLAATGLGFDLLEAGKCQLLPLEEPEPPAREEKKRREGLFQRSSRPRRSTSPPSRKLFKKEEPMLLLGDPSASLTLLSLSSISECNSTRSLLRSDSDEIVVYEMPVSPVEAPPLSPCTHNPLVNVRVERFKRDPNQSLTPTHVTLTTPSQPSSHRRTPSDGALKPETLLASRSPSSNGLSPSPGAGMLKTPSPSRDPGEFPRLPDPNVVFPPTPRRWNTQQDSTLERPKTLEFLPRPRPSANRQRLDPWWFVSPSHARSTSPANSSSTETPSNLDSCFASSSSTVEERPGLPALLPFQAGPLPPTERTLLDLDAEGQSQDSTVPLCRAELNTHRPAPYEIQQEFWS
Chain of protein kinases of the Z-LYTE panel (Homo sapiens, UniProt Q7KZI7) (Q7KZI7 whole entry): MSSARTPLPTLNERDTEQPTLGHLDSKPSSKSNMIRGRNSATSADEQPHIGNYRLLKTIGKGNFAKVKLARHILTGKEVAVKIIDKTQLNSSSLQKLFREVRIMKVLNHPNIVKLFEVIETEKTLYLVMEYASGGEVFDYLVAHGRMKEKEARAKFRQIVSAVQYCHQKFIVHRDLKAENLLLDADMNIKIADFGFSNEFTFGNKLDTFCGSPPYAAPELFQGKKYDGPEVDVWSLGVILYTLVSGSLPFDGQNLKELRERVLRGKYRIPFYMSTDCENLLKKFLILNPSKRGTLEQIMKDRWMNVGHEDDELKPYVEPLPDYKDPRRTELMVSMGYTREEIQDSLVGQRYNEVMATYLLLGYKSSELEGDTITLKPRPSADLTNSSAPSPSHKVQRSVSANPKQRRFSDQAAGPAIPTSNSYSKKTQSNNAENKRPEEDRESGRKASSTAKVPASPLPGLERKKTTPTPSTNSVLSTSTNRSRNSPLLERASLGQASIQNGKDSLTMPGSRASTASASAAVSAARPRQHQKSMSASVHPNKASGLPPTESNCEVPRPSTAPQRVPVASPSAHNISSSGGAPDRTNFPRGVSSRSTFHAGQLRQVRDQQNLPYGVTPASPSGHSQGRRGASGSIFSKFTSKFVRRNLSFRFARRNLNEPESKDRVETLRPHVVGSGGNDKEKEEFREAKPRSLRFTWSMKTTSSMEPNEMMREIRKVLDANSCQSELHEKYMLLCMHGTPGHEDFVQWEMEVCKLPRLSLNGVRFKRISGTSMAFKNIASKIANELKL

By inhibition is commonly meant the relative decrease from the control value, in per cent. As to `CCN1CCN(c2ccc(Nc3cc(Nc4cccc5c4N(C(C)=O)CC5)ccn3)cc2)CC1` [Compound 1938], the inhibition at 1 µM in experiment [1] (read-out: % Inhibition Point 1) is 1.74%; in experiment [1] (read-out: % Inhibition Point 2), 1.66%; in experiment [1] (read-out: % Inhibition mean), 1.7%; in experiment [2] (read-out: % Inhibition Point 1) it was -0.0637%; in experiment [2] (read-out: % Inhibition Point 2), -0.692%; in experiment [2] (read-out: % Inhibition mean), -0.378%. Moreover, the inhibition at 1 µM in experiment [3] (read-out: % Inhibition Point 1) amounted to 6.46%; in experiment [3] (read-out: % Inhibition Point 2) it was 4%; in experiment [3] (read-out: % Inhibition mean), 5%; in experiment [4] (read-out: % Inhibition Point 1), 4%; in experiment [4] (read-out: % Inhibition Point 2), 1.07%; in experiment [4] (read-out: % Inhibition mean), 2.46%. Moreover, the inhibition at 1 µM in experiment [5] (read-out: % Inhibition Point 1) is 4.68%; in experiment [5] (read-out: % Inhibition Point 2), -0.193%; in experiment [5] (read-out: % Inhibition mean) it was 2.24%; in experiment [6] (read-out: % Inhibition Point 1), 6.48%; in experiment [6] (read-out: % Inhibition Point 2), 4%; in experiment [6] (read-out: % Inhibition mean), 5.34%. In addition, the inhibition at 1 µM in experiment [7] (read-out: % Inhibition Point 1) is 0.526%; in experiment [7] (read-out: % Inhibition Point 2) it was 3.33%; in experiment [7] (read-out: % Inhibition mean) it was 2%.
